Measurements: the supplement of paper PMC11061612

What was measured:
AZD1775 = compound: C=CCn1c(=O)c2cnc(Nc3ccc(N4CCN(C)CC4)cc3)nc2n1-c1cccc(C(C)(C)O)n1 [AZD1775]; conditions: max 3 µM
Outline: (§1)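 Viability was measured with CellTiter-Glo 2.0 luminescence after 72 hours of dosing at a final DMSO of typically 0.2%, and scaled between blank-well and DMSO-well means. Beforehand, cancer cell lines sat 24 hours at 37°C and 5% CO2 in 1536-well plates in 7.5 μl DMEM/F12 or RPMI with 10% FBS. A non-linear mixed effects model fitted two-parameter logistic curves to the dose responses. The single-agent IC50 comes from these fits.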

Trametinib = compound: CC(=O)Nc1cccc(-n2c(=O)n(C3CC3)c(=O)c3c(Nc4ccc(I)cc4F)n(C)c(=O)c(C)c32)c1 [Trametinib]; conditions: max 1 µM
Outline: as §1

AZD7648 = compound: Cc1cc2ncnn2cc1Nc1ncc2c(n1)n(C1CCOCC1)c(=O)n2C [AZD7648]; conditions: max 10 µM
Outline: as §1

5-Fluorouracil = compound: O=c1[nH]cc(F)c(=O)[nH]1 [5-Fluorouracil]; conditions: max 20 µM
Outline: as §1

Gemcitabine = compound: Nc1ccn([C@@H]2O[C@H](CO)[C@@H](O)C2(F)F)c(=O)n1 [Gemcitabine]; conditions: max 0.3 µM
Outline: as §1

Etoposide = compound: COc1cc([C@@H]2c3cc4c(cc3[C@@H](O[C@@H]3O[C@@H]5CO[C@@H](C)O[C@H]5[C@H](O)[C@H]3O)[C@H]3COC(=O)[C@H]23)OCO4)cc(OC)c1O [Etoposide]; conditions: max 10 µM
Outline: as §1

AZD5363 = compound: C1CN(CCC1(C(=O)N[C@@H](CCO)C2=CC=C(C=C2)Cl)N)C3=NC=NC4=C3C=CN4 [AZD5363]; conditions: max 10 µM
Outline: as §1

Taselisib = compound: Cc1nc(-c2cn3c(n2)-c2ccc(-c4cnn(C(C)(C)C(N)=O)c4)cc2OCC3)n(C(C)C)n1 [Taselisib]; conditions: max 10 µM
Outline: as §1

Palbociclib = compound: CC(=O)c1c(C)c2cnc(Nc3ccc(N4CCNCC4)cn3)nc2n(C2CCCC2)c1=O [Palbociclib]; conditions: max 10 µM
Outline: as §1

SN-38 = compound: CCc1c2c(nc3ccc(O)cc13)-c1cc3c(c(=O)n1C2)COC(=O)[C@]3(O)CC [SN-38]; conditions: max 0.3 µM
Outline: as §1

SG3199 = compound: CC1=CN2[C@@H](C1)C=NC3=CC(=C(C=C3C2=O)OC)OCCCCCOC4=C(C=C5C(=C4)N=C[C@@H]6CC(=CN6C5=O)C)OC [SG3199]; conditions: max 0.001 µM
Outline: as §1

Gefitinib = compound: COc1cc2ncnc(Nc3ccc(F)c(Cl)c3)c2cc1OCCCN1CCOCC1 [Gefitinib]; conditions: max 10 µM
Outline: as §1

AZD8186 = compound: C[C@@H](Nc1cc(F)cc(F)c1)c1cc(C(=O)N(C)C)cc2c(=O)cc(N3CCOCC3)oc12 [AZD8186]; conditions: max 10 µM
Outline: as §1

Dasatinib = compound: CC1=C(C(=CC=C1)Cl)NC(=O)C2=CN=C(S2)NC3=CC(=NC(=N3)C)N4CCN(CC4)CCO [Dasatinib]; conditions: max 2 µM
Outline: as §1

Doxorubicin = compound: COc1cccc2c1C(=O)c1c(O)c3c(c(O)c1C2=O)C[C@@](O)(C(=O)CO)C[C@@H]3O[C@H]1C[C@H](N)[C@H](O)[C@H](C)O1 [Doxorubicin]; conditions: max 1 µM
Outline: as §1

SRA737 = compound: N#Cc1cnc(Nc2cc(NC[C@H]3CNCCO3)c(C(F)(F)F)cn2)cn1 [SRA737]; conditions: max 10 µM
Outline: as §1

AZD5991 = compound: Cc1c2c(nn1C)CSCc1cc(n(C)n1)CSc1cc(c3ccccc3c1)OCCCc1c(C(=O)O)n(C)c3c-2c(Cl)ccc13 [AZD5991]; conditions: max 1 µM
Outline: as §1

Crizotinib = compound: C[C@@H](Oc1cc(-c2cnn(C3CCNCC3)c2)cnc1N)c1c(Cl)ccc(F)c1Cl [Crizotinib]; conditions: max 10 µM
Outline: as §1

MK-2206 = compound: NC1(c2ccc(-c3nc4ccn5c(=O)[nH]nc5c4cc3-c3ccccc3)cc2)CCC1 [MK-2206]; conditions: max 10 µM
Outline: as §1

AZD2811 = compound: CCN(CCO)CCCOc1ccc2c(Nc3cc(CC(=O)Nc4cccc(F)c4)[nH]n3)ncnc2c1 [AZD2811]; conditions: max 1 µM
Outline: as §1

AZD5153 = compound: COc1nnc2ccc(N3CCC(c4ccc(OCCN5CCN(C)C(=O)[C@H]5C)cc4)CC3)nn12 [AZD5153]; conditions: max 1 µM
Outline: as §1

AZD6738 = compound: C[C@@H]1COCCN1C2=NC(=NC(=C2)C3(CC3)[S@](=N)(=O)C)C4=C5C=CNC5=NC=C4 [AZD6738]; conditions: max 10 µM
Outline: as §1

[1] = compound: O=C(Nc1ccc2[nH]nc(-c3ccncc3)c2c1)[C@@H]1CCN(CC(=O)N2CCN(c3ccc(-c4ncccn4)cc3)CC2)C1; conditions: max 5 µM
Outline: as §1

AZD1390 = compound: CC(C)n1c(=O)n(C)c2cnc3cc(F)c(-c4ccc(OCCCN5CCCCC5)nc4)cc3c21 [AZD1390]; conditions: max 0.3 µM
Outline: as §1

AZD4320 = compound: CN(CC[C@H](CSC1=CC=CC=C1)NC2=C(C=C(C=C2)S(=O)(=O)NC(=O)C3=CC=C(C=C3)N4CCC(CC4)[C@H](C5=CC=CC=C5C6=CC=C(C=C6)Cl)O)S(=O)(=O)C(F)(F)F)CCO [AZD4320]; conditions: max 1 µM
Outline: as §1

Lapatinib = compound: CS(=O)(=O)CCNCc1ccc(-c2ccc3ncnc(Nc4ccc(OCc5cccc(F)c5)c(Cl)c4)c3c2)o1 [Lapatinib]; conditions: max 10 µM
Outline: as §1

Savolitinib = compound: C[C@@H](c1ccc2nccn2c1)n1nnc2ncc(-c3cnn(C)c3)nc21 [Savolitinib]; conditions: max 1 µM
Outline: as §1

AZD0156 = compound: CN(C)CCCOc1ccc(-c2ccc3ncc4c(c3c2)n(C2CCOCC2)c(=O)n4C)cn1 [AZD0156]; conditions: max 3 µM
Outline: as §1

Olaparib = compound: O=C(c1cc(Cc2n[nH]c(=O)c3ccccc23)ccc1F)N1CCN(C(=O)C2CC2)CC1 [Olaparib]; conditions: max 10 µM
Outline: as §1

Carboplatin = compound: C1CC(C1)(C(=O)[O-])C(=O)[O-].N.N.[Pt+2] [Carboplatin]; conditions: max 10 µM
Outline: as §1

Alisertib = compound: COc1cc(Nc2ncc3c(n2)-c2ccc(Cl)cc2C(c2c(F)cccc2OC)=NC3)ccc1C(=O)O [Alisertib]; conditions: max 10 µM
Outline: as §1

Paclitaxel = compound: CC(=O)O[C@H]1C(=O)[C@@]2(C)[C@H]([C@H](OC(=O)c3ccccc3)[C@]3(O)C[C@H](OC(=O)[C@H](O)[C@@H](NC(=O)c4ccccc4)c4ccccc4)C(C)=C1C3(C)C)[C@]1(OC(C)=O)CO[C@@H]1C[C@@H]2O [Paclitaxel]; conditions: max 3 µM
Outline: as §1

Venetoclax = compound: CC1(C)CCC(CN2CCN(c3ccc(C(=O)NS(=O)(=O)c4ccc(NCC5CCOCC5)c([N+](=O)[O-])c4)c(Oc4cnc5[nH]ccc5c4)c3)CC2)=C(c2ccc(Cl)cc2)C1 [Venetoclax]; conditions: max 1 µM
Outline: as §1

Selumetinib = compound: Cn1cnc2c(F)c(Nc3ccc(Br)cc3Cl)c(C(=O)NOCCO)cc21 [Selumetinib]; conditions: max 10 µM
Outline: as §1

Prexasertib = compound: COc1cccc(OCCCN)c1-c1cc(Nc2cnc(C#N)cn2)n[nH]1 [Prexasertib]; conditions: max 1 µM
Outline: as §1

Row | Cell Line | IC50, cell viability 72 h (AZD1775) | IC50, cell viability 72 h (Trametinib) | IC50, cell viability 72 h (AZD7648) | IC50, cell viability 72 h (5-Fluorouracil) | IC50, cell viability 72 h (Gemcitabine) | IC50, cell viability 72 h (Etoposide) | IC50, cell viability 72 h (AZD5363) | IC50, cell viability 72 h (Taselisib) | IC50, cell viability 72 h (Palbociclib) | IC50, cell viability 72 h (SN-38) | IC50, cell viability 72 h (SG3199) | IC50, cell viability 72 h (Gefitinib) | IC50, cell viability 72 h (AZD8186) | IC50, cell viability 72 h (Dasatinib) | IC50, cell viability 72 h (Doxorubicin) | IC50, cell viability 72 h (SRA737) | IC50, cell viability 72 h (AZD5991) | IC50, cell viability 72 h (Crizotinib) | IC50, cell viability 72 h (MK-2206) | IC50, cell viability 72 h (AZD2811) | IC50, cell viability 72 h (AZD5153) | IC50, cell viability 72 h (AZD6738) | IC50, cell viability 72 h [1] | IC50, cell viability 72 h (AZD1390) | IC50, cell viability 72 h (AZD4320) | IC50, cell viability 72 h (Lapatinib) | IC50, cell viability 72 h (Savolitinib) | IC50, cell viability 72 h (AZD0156) | IC50, cell viability 72 h (Olaparib) | IC50, cell viability 72 h (Carboplatin) | IC50, cell viability 72 h (Alisertib) | IC50, cell viability 72 h (Paclitaxel) | IC50, cell viability 72 h (Venetoclax) | IC50, cell viability 72 h (Selumetinib) | IC50, cell viability 72 h (Prexasertib)
1 | HT-29 (Colorectal Carcinoma) | 0.31 µM | 0.0119 µM | > 10 µM | > 20 µM | 0.161 µM | > 10 µM | > 10 µM | 2.22 µM | > 10 µM | 0.0647 µM | > 0.001 µM | > 10 µM | > 10 µM | > 2 µM | > 1 µM | 4.64 µM | > 1 µM | 6.73 µM | > 10 µM | > 1 µM | 0.155 µM | 2.39 µM | 0.436 µM | > 0.3 µM | > 1 µM | > 10 µM | > 1 µM | > 3 µM | > 10 µM | > 10 µM | > 10 µM | 0.018 µM | > 1 µM | 1 µM | 0.0283 µM
2 | IHH-4 (Thyroid Gland Carcinoma) | 0.414 µM | 0.0853 µM | > 10 µM | 3.43 µM | 0.00874 µM | 1.67 µM | > 10 µM | > 10 µM | > 10 µM | 0.00541 µM | > 0.001 µM | > 10 µM | > 10 µM | 0.961 µM | 0.275 µM | > 10 µM | > 1 µM | 7.34 µM | > 10 µM | > 1 µM | 0.68 µM | 4.34 µM | 1.22 µM | > 0.3 µM | > 1 µM | > 10 µM | > 1 µM | > 3 µM | > 10 µM | > 10 µM | 5.97 µM | 0.007 µM | > 1 µM | 4.47 µM | 0.0994 µM
3 | KARPAS-620 (Plasma Cell Myeloma) | 1.48 µM | 0.929 µM | > 10 µM | > 20 µM | > 0.3 µM | > 10 µM | 1.62 µM | 0.501 µM | > 10 µM | > 0.3 µM | > 0.001 µM | > 10 µM | > 10 µM | > 2 µM | > 1 µM | > 10 µM | 0.0599 µM | 4.75 µM | 2.23 µM | > 1 µM | 0.167 µM | > 10 µM | > 5 µM | > 0.3 µM | 0.00591 µM | > 10 µM | > 1 µM | > 3 µM | > 10 µM | > 10 µM | 10 µM | 0.00698 µM | 0.0846 µM | 5.72 µM | 0.0804 µM
4 | KARPAS-1106P (B-Cell Non-Hodgkin's Lymphoma) | 0.495 µM | > 1 µM | > 10 µM | > 20 µM | 0.0183 µM | 1.79 µM | > 10 µM | 0.462 µM | > 10 µM | 0.00305 µM | > 0.001 µM | > 10 µM | 0.705 µM | 0.213 µM | 0.146 µM | 2.18 µM | 0.127 µM | 4 µM | > 10 µM | > 1 µM | 0.132 µM | 3.96 µM | > 5 µM | > 0.3 µM | > 1 µM | > 10 µM | > 1 µM | > 3 µM | > 10 µM | > 10 µM | > 10 µM | 0.134 µM | > 1 µM | > 10 µM | 0.0112 µM
5 | KATOIII (Gastric Carcinoma) | > 3 µM | 0.893 µM | > 10 µM | 14.3 µM | > 0.3 µM | > 10 µM | > 10 µM | > 10 µM | > 10 µM | > 0.3 µM | > 0.001 µM | > 10 µM | > 10 µM | > 2 µM | > 1 µM | > 10 µM | > 1 µM | > 10 µM | > 10 µM | > 1 µM | > 1 µM | > 10 µM | 4.46 µM | > 0.3 µM | > 1 µM | > 10 µM | > 1 µM | > 3 µM | > 10 µM | > 10 µM | 1.79 µM | > 3 µM | > 1 µM | > 10 µM | 0.42 µM
